A melting point compilation (Tetko et al.; mined from patent text by program, amines drawn as free bases though some values may be those of a salt)

SMILES	melting point
CCCCCCC(=O)c1ccc2c([N+](=O)[O-])c(O)c(O)cc2c1	97 to 98 °C
Cc1cc(O)c2c(c1)CCC2	82 to 83 °C
COC(=O)C1CC(=O)n2c3c(c4cc(F)ccc42)CCNC31 (stereo unspecified)	172 °C
CCOc1cc(N)ccn1	88 to 89 °C
O=C1c2c(Cl)cccc2-n2cnc(-c3nnc(-c4ccccc4)o3)c2[C@@H]2CCCN12	221 to 222 °C
O=C(Nc1ccc(Cl)cc1)NC1N=C(c2ccccc2)c2ccccc2-n2cnnc21 (stereo unspecified)	294 to 296 °C
COc1ccc(C=NNS(=O)(=O)c2ccc(C)cc2)cc1	103 to 105 °C
CCNC(=O)OCCCCCCCCC1Cc2c(c(OC)c(OC)c(OC)c2OC)C1	85 to 86 °C
CCOC(=O)CCc1cn(Cc2ccc(O)cc2)nc1O	143 to 144 °C
CC(C)C[C@@H](CO)NC(=O)[C@H](Cc1c[nH]cn1)NC(=O)[C@H](CSSc1ncccc1[N+](=O)[O-])NC(=O)OC(C)(C)C	185 to 188 °C
CC(=O)N1CCCC2=C1CCc1cc(Cl)ccc12	106 to 108 °C
c1ccc(-n2c(-c3ccc(OCCN4CCCCC4)cc3)nc3ccccc32)cc1	107 °C
COC(=O)c1cccc([N+](=O)[O-])c1C	64.2 to 65.5 °C
O=C(Nc1ccccc1Cl)c1ccccc1SSc1ccccc1C(=O)Nc1ccccc1Cl	247 to 249 °C
c1cncc(-c2cncnc2)c1	101 to 103 °C
CC(C)(C)OC(=O)NCCCN1CCC(CCCCNC(N)=NC(=O)c2nc(Cl)c(N)nc2N)CC1	98 to 102 °C
CC(C)NC(=O)Nc1ccc2c(c1Cl)C(c1ccccc1F)=NCC(=O)N2C	130 to 140 °C
CCOC(=O)/C=C/c1cccc(C(F)(F)F)c1	40 to 41 °C
CC(C)Oc1cccc(-n2c(=S)[nH]c3ccccc3c2=O)c1	288 to 290 °C
CCC(C)c1cc2c(cc1O)CC[C@@H]1[C@@H]2CC[C@]2(C)C(=O)CC[C@@H]12 (stereo partly specified)	186 to 187 °C
CCOc1ccc2nc(N3CCC(OC[C@H](C)NC(C)=O)CC3)sc2c1	129 to 131 °C
CCCN(CCC)c1ccc2nc3c4ccccc4c(=Nc4ccncc4)cc-3oc2c1	215 to 216 °C
CC(C)(C)OC(=O)NCCc1ccc(OCCC2Oc3ccccc3N(Cc3ccccc3Cl)C2=O)cc1 (stereo unspecified)	108 to 111 °C
CN(C)C(N)=NC(=O)C(Br)c1c(Cl)cccc1Cl (stereo unspecified)	142 to 145 °C

SMILES	melting point
O=S(=O)(Cc1cc(F)cc(F)c1)NC1CN(C(c2ccc(Cl)cc2)c2cccnc2)C1 (racemic)	110 °C
CCOC(=O)CC(=O)c1c(C(=O)OC)n(C)c2cc(Cl)ccc12	250 to 252 °C
CCCc1c(C(OC)OC)cc([N+](=O)[O-])c(OC)c1OC	52.1 to 54 °C
COC(=O)CCC/C(C)=C/c1cccc2c1NCCNC2=O	175 to 176 °C
O=C(O)C1=C(c2cc(-c3ccccc3)[nH]n2)CCCC1	207 to 209 °C
NS(=O)(=O)c1cccc(-c2noc(-c3cnn4c(C(F)(F)F)cc(-c5ccc(C(F)(F)F)cc5)nc34)n2)c1	262 °C
CCN1C(=O)CC(=O)N(c2ccccc2)c2cc(Cl)ccc21	220 to 222 °C
COc1ccc(C2CC(=O)N(C)C2)cc1OC (stereo unspecified)	69 °C
CC1=C(Cc2ncc[nH]2)CCc2ccccc21	209 to 211 °C
CS(=O)(=O)OCCNc1ccc(C(F)(F)F)cc1[N+](=O)[O-]	68 to 70 °C
COc1cc(CCNC(=O)C(F)(F)F)ccc1N	80 to 81 °C
CC(=Cc1cccc(O)c1)[N+](=O)[O-]	96 to 98 °C
O=C(N1CCc2ccccc2CC1)C(F)(F)F	73 to 74 °C
COc1cc2c(cc1OC)C(Cc1ccc(NC(C)=O)c(I)c1)N(C(=O)C(F)(F)F)CC2 (stereo unspecified)	174 to 175 °C
COc1ccc(N2CCN(Cc3ccc([N+](=O)[O-])cc3)CC2)cc1	130 to 132 °C
Cc1ccc(C(=O)N(C)Cc2cccc(-c3ccc(CC4SC(=O)NC4=O)cc3)c2)cc1 (stereo unspecified)	198 °C
Clc1ccc(-c2ccccc2Cl)nn1	145 to 147 °C
CC(C)c1nnnn1-c1cc(C(=O)O)cc(-c2ccc(Cl)cn2)c1	180 to 181 °C
Cc1cc(Sc2ccccc2)ccc1[N+](=O)[O-]	69 to 75 °C
COc1cccc(-c2ccccc2CNC(=O)C(C)C)c1	103 to 105 °C
Cc1cccc(NC(=O)NC2CN(C(=O)C(C)(C)C)c3ccccc3N(CC(C)C)C2=O)c1 (stereo unspecified)	152 °C
Clc1ccc(-c2ccc(N3CCCN(c4ccc(-c5ccc(Cl)cc5)cn4)CC3)nc2)cc1	245 to 247 °C
O=c1nc(-c2ccc(CO)cn2)sc2ccccc12	247 to 248 °C
c1ccc2c(C3CN4CCC3CC4)c[nH]c2c1 (stereo unspecified)	214 to 216 °C

SMILES	melting point
Cc1nnc(-c2ccc3ccn(-c4ccc(S(C)=O)cc4)c3c2)o1 (stereo unspecified)	215 to 216 °C
Cn1c(=O)c(=O)n(Cc2ccc(Cl)cc2Cl)c2cc(C(=O)O)ccc21	320 to 322 °C
O=C1CN(SC(Cl)(Cl)Cl)C(=O)N1SC(Cl)(Cl)Cl	142 °C
O=C(O)c1ccc(OCc2ccccc2)cc1OCc1ccccc1	123 to 124 °C
O=C(NCCCCCCOC(=O)Oc1ccc([N+](=O)[O-])cc1)Oc1ccc(Oc2ccccc2)cc1	102 to 104 °C
CC(CNc1nc(N)nc2c1ncn2C1OC(CO)C(O)C1O)(c1ccccc1)c1ccccc1 (stereo unspecified)	129 to 132 °C
CCCCN1CCC(COC(=O)c2cc(Cl)c(N)cc2OC)C(O)C1 (stereo unspecified)	121 °C
CC(CO)(CO)NS(=O)(=O)c1cc([N+](=O)[O-])c(Cl)s1	133 °C
O=C(O)c1ccc(NCC=Cc2ccccc2)cc1	200 to 202 °C
C[C@@H](Nc1ncnc2[nH]c(-c3ccc(CO)cc3)cc12)c1ccccc1	> 300 °C
O=C1c2cc(Cl)ccc2N(N2CCOCC2)C2=NCCN12	238 to 239 °C
Nc1nc(-c2ccc(Cl)cc2F)nc(C(=O)O)c1Cl	194 to 196 °C
CC1C(=O)Oc2cc(N3CCOCC3)c(Br)cc21 (stereo unspecified)	99 to 100 °C
CC(=O)c1cccc(Nc2cc(C)nc(N)n2)c1	194 to 196 °C
CCOC(=O)c1ccc(OCCCCCCCCCCC2c3c(c4ccccc4c4ccccc34)-c3c2c2ccccc2c2ccccc32)cc1	122 to 124 °C
CC(c1oc2ccccc2c(=O)c1-c1cccc(F)c1)n1nc(-c2ccc3cc[nH]c3c2)c2c(N)ncnc21 (stereo unspecified)	222 to 225 °C
CC1CC(C)CN(Cc2ccc(C=CC(=O)Nc3ccc(-c4ccc(Cl)cc4)cc3)cc2)C1 (stereo unspecified)	217 to 218 °C
CN(C)CCN(C)C(=O)Cc1ccc(NC(=O)c2ccc(-c3ccccc3)cc2)cc1	135 to 136 °C
COc1c(C)c(N2CCN(c3ccc(C)cc3)CC2)c(C)c2c1OC(C)C2 (stereo unspecified)	82 to 84 °C
CC(C(=O)N1CCCC1C(=O)O)N(CC(=O)C(Cc1ccccc1)NC(=O)c1ccccc1)C(=O)OCc1ccccc1 (stereo unspecified)	70 to 91 °C
CC(C)CS(=O)(=O)c1ccc(F)c(C#Cc2cc(Cl)ccc2OCC(=O)O)c1	141 to 143 °C
O=C(O)c1c(-c2ccccc2)csc1N1C(=O)c2ccccc2C1=O	198 to 199 °C

Results, then the compound that gave them:

melting point	SMILES
148 to 151 °C	CCN(CC)CCOc1ccc(NC(=O)CC(=O)c2ccc(-c3ccccc3)cc2)cc1Cl
169 to 171 °C	Oc1ccc(CBr)cc1-n1nc2ccccc2n1
110 to 111 °C	COC(=O)Cc1cc(N=O)c2[nH]ccc2c1
33 to 35 °C	CCCCN(CCCC)Cc1cc(C(C)(C)C)cc(C(C)(C)C)c1O
132 to 137 °C	Nc1nc2ccccc2c2c1nc(CCO)n2CC1(O)CCC1
61 to 61.5 °C	COc1ccc(OC)c(C=O)c1C
137 to 139 °C	CN(C)Cc1ccnc(CSCCNc2ncc(Cc3ccn(C)c(=O)c3)c(=O)[nH]2)c1
105 to 106 °C	CCCCCCNC(=O)[C@@H]1CCCN1C(=O)[C@@H](N)C(C)C
140 to 141 °C	COCCCOc1ccc(/C=C(\OC)C(=O)O)c(Oc2ncc(C(F)(F)F)cc2Cl)c1
106 to 107 °C	COC(C(=O)O)c1nn(-c2ccccc2)c2c1CCC2 (stereo unspecified)
121 to 124 °C	CCC/C(=C\C#N)c1ccc2c(c1)C(CC)(CC)OC(=O)N2
143 to 144 °C	c1ccc(-c2cn3ccsc3n2)cc1
52 °C	COc1ccc(CN(CCN(C)CCCCCCN=C(NC#N)NCCSCc2csc(NC(=N)N)n2)c2ccccn2)cc1
168 °C	CC1(C)C(C(=O)O)C1C(OS(C)(=O)=O)C(Br)(Br)Br (stereo unspecified)
120 °C	Cc1nc2c(O)cccc2c(Cl)c1C
115 to 117 °C	COc1ccc(C=O)c(Br)c1Oc1ccc([N+](=O)[O-])cc1

melting point	SMILES
54 to 55 °C	Cc1cccc2c1CCCCC2=O
116 °C	COC(=O)C1=C(C)N(CCOC(=O)c2ccccc2)C(=O)NC1c1ccc2ccccc2c1 (stereo unspecified)
229 °C	O=c1[nH]c2cccnc2n1-c1cc(F)ccc1F
153 to 160 °C	CCc1[nH]c(C)c(C(C)=O)c1C
237 to 238 °C	NC(=O)c1nnn(Cc2ccc(S(=O)c3ccc(Cl)cc3)c(Cl)c2)c1N (stereo unspecified)
190 to 192 °C	O=Cc1ccc2c(n1)C(=O)C(NC(=O)CCl)=CC2=O
169 to 171 °C	COc1cc2ncnc(N3CCN(C(=S)Nc4cccc(C(C)C)c4)CC3)c2cc1OC
190 °C	CC(C)N1C(=O)c2cccnc2NS1(=O)=O
132 to 133 °C	CC(C#Cc1cccc(C2=NOC(c3ccc(F)cc3)C2)c1)N(O)C(N)=O (stereo unspecified)
192 to 193 °C	C#Cc1ccc(-c2c(C)nnc(OC)c2-c2c(F)cc(OC)cc2F)cc1
106 to 110 °C	COC(=O)CCCc1cc2nc(Cl)ccc2n1S(=O)(=O)c1ccc2c(c1)OCCN2C
93 to 95 °C	CS(=O)(=O)N(Cc1ccc(F)cc1)c1cccnc1
110 to 112 °C	COc1ccc(C(=O)NCCN2CCC(Oc3ccc(Cl)c(Cl)c3)CC2)cc1
155 °C	COc1ccc(C(=O)C(N=C=S)c2ccc(OC)cc2)cc1 (stereo unspecified)
123 to 127 °C	Cc1ccc(-c2ccc3c(c2)C=C(C(=O)N2CCC(N)CC2)CCO3)cc1
